# Measured values reported in patent US6461856B2 (priority 1999, dated 2002).
# Test system: F420-dependent dehydrogenase (ORF 9)
# Type: biochemical, Rhodococcus erythropolis HL PM-1
smiles,measurement,value
"O=[N+]([O-])c1ccc(O)c([N+](=O)[O-])c1 [DNP, 2,4-dinitrophenol]",reduction of the substrate to its Meisenheimer complex upon addition of ORF 9 extract,reduces
